Molecules are shown by their SMILES. Where only a bound is given, the exact number is not on record here.

This data set is described as follows: Cytotoxicity assay in MT-4 cells. The data set is classed as cell-based. The conditions noted are these: human; uninfected MT-4 cells, 5 days incubation, Cell Titer Glo; read-out: MT4 CC50. Here is the method:
Compounds were tested in a high-throughput 384-well assay format for their ability to inhibit the replication of HIV-1 (IIIB) in MT-4 cells. Compounds were serially diluted (1.3) in DMSO on 384-well polypropylene plates and further diluted 200-fold into complete RPMI media (10% FBS, 1% P/S) using the Biotek Micro Flow and Labcyte ECHO acoustic dispenser. Each plate contained up to 8 test compounds, with negative (No Drug Control) and 5 μM AZT positive controls. MT-4 cells were pre-infected with 10 μL of either RPMI (mock-infected) or a fresh 1:250 dilution of HIV-1 IIIB concentrated virus stock. Infected and uninfected MT-4 cells were further diluted in complete RPMI media and added to each plate using a Micro Flow dispenser. After 5 days incubation in a humidified and temperature controlled incubator (37° C.), Cell Titer Glo (Promega) was added to the assay plates and chemiluminescence read using an Envision plate-reader.
Assays were performed as above except uninfected MT-4 cells were added to each well containing test compound. In addition, […] puromycin was added to the last column of each assay plate to assess a base level of cytotoxicity.
For `CCCCCCCCCCCCCCOC(=O)OCOc1c2n(cc(C(=O)NCc3ccc(F)cc3F)c1=O)[C@@H]1CN(C2=O)[C@@H](C)CC[C@]12CC(C)=NO2` [Example 192, (((3′S,5S,7′R)-10′-((2,4-difluorobenzyl)carbamoyl)-3,3′-dimethyl-1′,11′-dioxo-1′,4′,5′,11′-tetrahydro-3′H,4H,7′H-spiro[isoxazole-5,6′-[2,7]methanopyrido[1,2-a][1,4]diazonin]-12′-yl)oxy)methyl tetradecyl carbonate], the CC50 (in general, the concentration giving 50% cytotoxicity) at 5 days is ≥ 50 µM. Consider `CCCCCCCCCCCCCCOC(=O)OCOc1c2n(cc(C(=O)NCc3ccc(F)cc3F)c1=O)[C@@H]1CN(C2=O)[C@@H](C)CC[C@]12CC(OC)=NO2` [Example 193, (((3′S,5S,7′R)-10′-((2,4-difluorobenzyl)carbamoyl)-3-methoxy-3′-methyl-1′,11′-dioxo-1′,4′,5′,11′-tetrahydro-3′H,4H,7′H-spiro[isoxazole-5,6′-[2,7]methanopyrido[1,2-a][1,4]diazonin]-12′-yl)oxy)methyl tetradecyl carbonate], for which the CC50 at 5 days was ≥ 50 µM. The value for `CC1=NO[C@@]2(CC[C@H](C)N3C[C@H]2n2cc(C(=O)NCc4ccc(F)cc4F)c(=O)c(OCOC(=O)OCCCCCCC(C)C)c2C3=O)C1` [Example 209, (((3′S,5S,7′R)-10′-((2,4-difluorobenzyl)carbamoyl)-3,3′-dimethyl-1′,11′-dioxo-1′,4′,5′,11′-tetrahydro-3′H,4H,7′H-spiro[isoxazole-5,6′-[2,7]methanopyrido[1,2-a][1,4]diazonin]-12′-yl)oxy)methyl (7-methyloctyl) carbonate] was ≥ 50 µM. Turning to `COC1=NO[C@@]2(CC[C@H](C)N3C[C@H]2n2cc(C(=O)NCc4ccc(F)cc4F)c(=O)c(OCOC(=O)OCCCCCCC(C)C)c2C3=O)C1` [Example 210, (((3′S,5S,7′R)-10′-((2,4-difluorobenzyl)carbamoyl)-3-methoxy-3′-methyl-1′,11′-dioxo-1′,4′,5′,11′-tetrahydro-3′H,4H,7′H-spiro[isoxazole-5,6′-[2,7]methanopyrido[1,2-a][1,4]diazonin]-12′-yl)oxy)methyl (7-methyloctyl) carbonate], the 50% cytotoxic concentration (CC50) at 5 days was ≥ 50 µM. The value for `COC[C@H](C)OC(=O)OCOc1c2n(cc(C(=O)NCc3ccc(F)cc3F)c1=O)[C@@H]1CN(C2=O)[C@@H](C)CC[C@]12CC(C)=NO2` [Example 215, (((3′S,5S,7′R)-10′-((2,4-difluorobenzyl)carbamoyl)-3,3′-dimethyl-1′,11′-dioxo-1′,4′,5′,11′-tetrahydro-3′H,4H,7′H-spiro[isoxazole-5,6′-[2,7]methanopyrido[1,2-a][1,4]diazonin]-12′-yl)oxy)methyl ((S)-1-methoxypropan-2-yl) carbonate] was ≥ 50 µM; that for `COC[C@H](C)OC(=O)OCOc1c2n(cc(C(=O)NCc3ccc(F)cc3F)c1=O)[C@@H]1CN(C2=O)[C@@H](C)CC[C@]12CC(OC)=NO2` [Example 216, (((3′S,5S,7′R)-10′-((2,4-difluorobenzyl)carbamoyl)-3-methoxy-3′-methyl-1′,11′-dioxo-1′,4′,5′,11′-tetrahydro-3′H,4H,7′H-spiro[isoxazole-5,6′-[2,7]methanopyrido[1,2-a][1,4]diazonin]-12′-yl)oxy)methyl ((S)-1-methoxypropan-2-yl) carbonate] was ≥ 50 µM. For the compound `CO[C@H](C)COC(=O)OCOc1c2n(cc(C(=O)NCc3ccc(F)cc3F)c1=O)[C@@H]1CN(C2=O)[C@@H](C)CC[C@]12CC(C)=NO2` [Example 217, (((3′S,5S,7′R)-10′-((2,4-difluorobenzyl)carbamoyl)-3,3′-dimethyl-1′,11′-dioxo-1′,4′,5′,11′-tetrahydro-3′H,4H,7′H-spiro[isoxazole-5,6′-[2,7]methanopyrido[1,2-a][1,4]diazonin]-12′-yl)oxy)methyl ((R)-2-methoxypropyl) carbonate], the CC50 at 5 days was 24.6 µM.

For the origin of these results see US20250122219A1 (priority 2023, published 2025).
